Measurements reported in ChEMBL document CHEMBL1201862, “PubChem BioAssay data set” (2004).
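Growth conditions: 96-well plates. Treatment: test compound, 48 hours, 5 concentrations. Analysis: linear interpolation between bracketing concentrations; unreached endpoints set to highest concentration. The concentration for 50% growth inhibition is given as GI50.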 Calls of active or inactive are those of the source. Cut-off read from the data, not from the text of the source: active = GI50 up to about 1.1 µM and inactive = higher.

Key:
Assay in all cases: DTP human tumour cell line panel, 48 h
786-0 = test system: 786-0
A498 = test system: A498
A549 = test system: A549
ACHN = test system: ACHN
CAKI-1 = test system: CAKI-1
CCRF-CEM = test system: CCRF-CEM
COLO 205 = test system: COLO 205
DLD-1 = test system: DLD-1
DMS-114 = test system: DMS-114
DMS-273 = test system: DMS-273
EKVX = test system: EKVX
HCC 2998 = test system: HCC 2998
HCT-116 = test system: HCT-116
HCT-15 = test system: HCT-15
HL-60 = test system: HL-60
HOP-62 = test system: HOP-62
HOP-92 = test system: HOP-92
HT-29 = test system: HT-29
IGROV-1 = test system: IGROV-1
K562 = test system: K562
KM-20L2 = test system: KM-20L2
KM12 = test system: KM12
LOX IMVI = test system: LOX IMVI
LXFL 529 = test system: LXFL 529
M14 = test system: M14
M19-MEL = test system: M19-MEL
MOLT-4 = test system: MOLT-4
Malme-3M = test system: Malme-3M
NCI-H226 = test system: NCI-H226
NCI-H23 = test system: NCI-H23
NCI-H460 = test system: NCI-H460
NCI-H522 = test system: NCI-H522
OVCAR-3 = test system: OVCAR-3
OVCAR-4 = test system: OVCAR-4
OVCAR-5 = test system: OVCAR-5
OVCAR-8 = test system: OVCAR-8
RPMI-8226 = test system: RPMI-8226
RXF 393 = test system: RXF 393
RXF 631 = test system: RXF 631
SF-268 = test system: SF-268
SF-295 = test system: SF-295
SF-539 = test system: SF-539
SK-MEL-28 = test system: SK-MEL-28
SK-MEL-2 = test system: SK-MEL-2
SK-MEL-5 = test system: SK-MEL-5
SK-OV-3 = test system: SK-OV-3
SN12C = test system: SN12C
SNB-19 = test system: SNB-19
SNB-75 = test system: SNB-75
SNB-78 = test system: SNB-78
SW-620 = test system: SW-620
TK-10 = test system: TK-10
U-251 = test system: U-251
UACC-257 = test system: UACC-257
UACC-62 = test system: UACC-62
UO-31 = test system: UO-31
XF498 = test system: XF498

With `O=C(CC(=O)C1=CNc2ccccc2S1)C(=O)Nc1ccc(Cl)cc1` as the molecule, how does the GI50 (786-0) read?
Its GI50 is > 50 µM (inactive).

And the GI50 (A498)?
Its GI50 is > 50 µM (inactive).

What about the GI50 (A549) of the same molecule?
The GI50 was > 50 µM (inactive).

And the GI50 (ACHN)?
Its GI50 is > 50 µM (inactive).

And the GI50 (CAKI-1)?
Its GI50 is > 50 µM (inactive).

And the GI50 (CCRF-CEM)?
The GI50 was > 50 µM (inactive).

And the GI50 (COLO 205)?
The GI50 was > 50 µM (inactive).

And the GI50 (DLD-1)?
Its GI50 is > 50 µM (inactive).

And the GI50 (DMS-114)?
Its GI50 is > 50 µM (inactive).

And the GI50 (DMS-273)?
The GI50 was > 50 µM (inactive).

And the GI50 (EKVX)?
The GI50 was > 50 µM (inactive).

What about the GI50 (HCC 2998) of the same molecule?
The GI50 was > 50 µM (inactive).

What about the GI50 (HCT-116) of the same molecule?
The GI50 was > 50 µM (inactive).

And the GI50 (HCT-15)?
The GI50 was > 50 µM.

And the GI50 (HL-60)?
Its GI50 is > 34 µM (inactive).

What about the GI50 (HOP-62) of the same molecule?
Its GI50 is > 50 µM (inactive).

And the GI50 (HOP-92)?
The GI50 was > 50 µM (inactive).

And the GI50 (HT-29)?
Its GI50 is > 50 µM (inactive).

What about the GI50 (IGROV-1) of the same molecule?
The GI50 was > 50 µM (inactive).

What about the GI50 (K562) of the same molecule?
The GI50 was > 24.3 µM (inactive).

And the GI50 (KM-20L2)?
The GI50 was > 50 µM (inactive).

And the GI50 (KM12)?
The GI50 was > 50 µM (inactive).

And the GI50 (LOX IMVI)?
Its GI50 is > 50 µM (inactive).

What about the GI50 (LXFL 529) of the same molecule?
Its GI50 is > 50 µM (inactive).

What about the GI50 (M14) of the same molecule?
The GI50 was > 50 µM (inactive).

And the GI50 (M19-MEL)?
Its GI50 is > 50 µM (inactive).

What about the GI50 (MOLT-4) of the same molecule?
The GI50 was > 50 µM (inactive).

What about the GI50 (Malme-3M) of the same molecule?
The GI50 was > 50 µM (inactive).

And the GI50 (NCI-H226)?
Its GI50 is 49.4 µM (inactive).

And the GI50 (NCI-H23)?
The GI50 was > 50 µM (inactive).

And the GI50 (NCI-H460)?
The GI50 was > 50 µM (inactive).

What about the GI50 (NCI-H522) of the same molecule?
Its GI50 is > 50 µM (inactive).

What about the GI50 (OVCAR-3) of the same molecule?
The GI50 was > 50 µM (inactive).

And the GI50 (OVCAR-4)?
Its GI50 is > 50 µM (inactive).

What about the GI50 (OVCAR-5) of the same molecule?
Its GI50 is > 50 µM (inactive).

What about the GI50 (OVCAR-8) of the same molecule?
The GI50 was > 50 µM (inactive).

And the GI50 (RPMI-8226)?
The GI50 was > 50 µM (inactive).

What about the GI50 (RXF 393) of the same molecule?
Its GI50 is > 50 µM (inactive).

What about the GI50 (RXF 631) of the same molecule?
Its GI50 is > 50 µM (inactive).

What about the GI50 (SF-268) of the same molecule?
Its GI50 is > 50 µM (inactive).

What about the GI50 (SF-295) of the same molecule?
The GI50 was > 50 µM (inactive).

And the GI50 (SF-539)?
The GI50 was > 50 µM (inactive).

And the GI50 (SK-MEL-28)?
Its GI50 is > 50 µM (inactive).

And the GI50 (SK-MEL-2)?
The GI50 was > 50 µM (inactive).

And the GI50 (SK-MEL-5)?
Its GI50 is > 50 µM (inactive).

What about the GI50 (SK-OV-3) of the same molecule?
The GI50 was > 50 µM (inactive).

And the GI50 (SN12C)?
Its GI50 is > 50 µM (inactive).

What about the GI50 (SNB-19) of the same molecule?
Its GI50 is > 50 µM (inactive).

And the GI50 (SNB-75)?
The GI50 was > 50 µM (inactive).

What about the GI50 (SNB-78) of the same molecule?
The GI50 was > 50 µM (inactive).

And the GI50 (SW-620)?
The GI50 was > 50 µM (inactive).

And the GI50 (TK-10)?
The GI50 was > 50 µM (inactive).

What about the GI50 (U-251) of the same molecule?
The GI50 was > 50 µM (inactive).

What about the GI50 (UACC-257) of the same molecule?
Its GI50 is > 50 µM (inactive).

And the GI50 (UACC-62)?
Its GI50 is > 50 µM (inactive).

And the GI50 (UO-31)?
The GI50 was > 50 µM (inactive).

What about the GI50 (XF498) of the same molecule?
The GI50 was > 50 µM (inactive).
